Like-named read-outs stand apart in the source and are kept apart here.
Columns and labels:
[1] = test system: N87 (human gastric cancer cell NCI-N87); assay: In vitro proliferation inhibition assay of cell lines (CellTiter-Glo), N87; format: cell-based; details: N87 cells, 72 hours
Method: (§1) In Vitro Proliferation Inhibition Assay of Cell Lines
(§2) 1. Cell culture and inoculation: on the first day of the experiment, normal cultured cells were taken, and in the exponential growth state, after digestion and dispersion, the cell density was then adjusted to 8.8×10^4 cells/mL for BT-474, and 6.6×10^4 cells/mL for N87, and 90 μL of which were inoculated to each well of a 96-well cell culture plate; after the inoculation was completed, the microplate was cultured under the conditions of 37° C. and 5% CO2 overnight. 2. Dosing to the cells: on the second day of the experiment, the microplate was taken out from the incubator, and 10 μL of 10× compound was added to each well of the microplate, setting 2 duplicate wells for each drug concentration and 9 dosing concentrations for each compound. According to different cell lines, the initial concentration of each compound was different. Upon completion of addition, the microplate was placed under the conditions of 37° C. and 5% CO2 for 72 hours. 3. Data acquisition: the microplate was taken out from the incubator and was allowed to equilibrate at room temperature for 30 minutes. 100 μL of CellTiter-Glo® Luminescent Cell Viability Assay reaction solution which had been equilibrated at room temperature was added to each well, and the reaction solution was shaken at 1300 rpm for 2 minutes at room temperature. After that, the microplate was placed in HERAEUS Multifuge X1R centrifuge, centrifuged at 2000 rpm for 1 minute, and allowed to equilibrate at room temperature for 10 minutes. The fluorescence signal value was measured on EnVision™.

CYP2C9 = target: T1, CYP2C9 (Homo sapiens, UniProt P11712); assay: Direct inhibition (DI) of CYP2C9 in human liver microsomes; format: in vitro ADME; details: probe Diclofenac, human liver microsomes 0.2 mg/mL, 10 μM compound, read-out: Direct inhibition (DI) 2C9 (Diclofenac)
T1 construct: A system of 100 μL human liver microsomes; from tissue; host or cells: human liver microsomes
Method: (§3) Study on Direct Inhibition (DI) of CYP3A4, CYP2D6, CYP2C9, CYP2C19, CYP1A2
(§4) A system of 100 μL human liver microsomes (final concentration: 0.2 mg/mL) was used for direct inhibition under warm incubation. The system contained NADPH (final concentration: 1 mM), 10 μM compound, a positive inhibitor cocktail (Ketoconazole 10 μM, Quinidine: 10 μM, Sulfaphenazole: 100 μM, Naphthoflavone: 10 μM, Tranylcypromene 1000 μM), a negative control 10 μM DMSO and mixed probe substrates (Midazolam 10 μM, Testosterone 100 μM, Dextromethophan 10 μM, Diclofenac 20 μM, Phenetin 100 μM, Mephenytoin 100 μM). The reaction was terminated after incubation for 20 minutes. The relative activity of the enzymes was calculated by measuring the relative production of metabolites.

CYP2D6 = target: T2, CYP2D6 (Homo sapiens, UniProt P10635); assay: Direct inhibition (DI) of CYP2D6 in human liver microsomes; format: in vitro ADME; details: probe Dextromethorphan, human liver microsomes 0.2 mg/mL, 10 μM compound, read-out: Direct inhibition (DI) 2D6 (Dextromethorphan)
T2 construct: A system of 100 μL human liver microsomes; from tissue; host or cells: human liver microsomes
Method: as §3, §4

EGFR kinase = EGFR kinase (Homo sapiens, UniProt P00533); assay: EGFR/ErbB2 enzymatic experiment (HTRF kinEASE-TK), EGFR; format: biochemical; details: EGFR kinase 0.06 units/μL, ATP 1.65 μM; read-out: Kinase IC50 (nM) in vitro EGFR
Method: (§5) EGFR/ErbB2 Enzymatic Experiment
(§6) Firstly, 1× reaction buffer required for the kinase was prepared, then 5× Enzymatic buffer (HEPES 20 mM pH 7.0, NaN3 0.1%, BSA 0.05%, sodium orthovanadate 0.5 mM) was diluted in HTRF kinEASE-TK kit by 1 time with deionized water, and 50 nM Supplement Enzymatic buffer (SEB REAGENT), 1 mM MnCl2, 5 mM MfCl2, 1 mM DTT were added. Secondly, 5× compound was prepared, and 10 mM test compound storage solution was diluted in multiple steps with DMSO in a 96-well compound plate to prepare 100× compound as an initial concentration, which was then used as the first concentration to carry out a 3-fold gradient dilution with DMSO to obtain a total of 10 concentrations. Then 1 μL of gradient diluent was added to 19 μL of 1× reaction buffer to prepare 5× compound for later use. Then 2 μL of 5× compound was transferred from the 96-well plate into a 384-well plate. To the compound-free control wells was added 2 μL of the following liquid: 19 μL of 1× reaction buffer with addition of 1 μL of DMSO. To the blank control well was added 2 μL of 250 mM EDTA. […] In the fourth step of reaction termination, HTRF Detection buffer was used to prepare a mixture of 2×TK Antibody-EU (K) and Sa-XL665, and the amount of TK Antibody-EU (K) was 5 μL per well. After the enzyme reaction was carried out for 30 minutes, 10 μL of the above liquid was added to a 384-well plate, and the reaction was carried out at room temperature for 1 hour. […] RFU665 nM and RFU620 nM were measured, and RFU665 nM/RFU620 nM×10000 was used as final data for analysis.

CYP3A4 = target: T3, CYP3A4 (Homo sapiens, UniProt P08684); assay: Direct inhibition (DI) of CYP3A4 in human liver microsomes; format: in vitro ADME; details: human liver microsomes 0.2 mg/mL, 10 μM compound
T3 construct: A system of 100 μL human liver microsomes; from tissue; host or cells: human liver microsomes
Method: as §3, §4

CYP2C19 = target: T4, CYP2C19 (Homo sapiens, UniProt P33261); assay: Direct inhibition (DI) of CYP2C19 in human liver microsomes; format: in vitro ADME; details: probe Mephenytoin, human liver microsomes 0.2 mg/mL, 10 μM compound, read-out: Direct inhibition (DI) 2C19 (Mephenytoin)
T4 construct: A system of 100 μL human liver microsomes; from tissue; host or cells: human liver microsomes
Method: as §3, §4

[2] = test system: BT-474 (human breast cancer cell); assay: In vitro proliferation inhibition assay of cell lines (CellTiter-Glo), BT-474; format: cell-based; details: BT-474 cells, 72 hours
Method: as §1
as §2, with “Cell culture and inoculation: on the first day of the experiment, normal cultured cells were taken, and in the exponential growth state, after digestion and dispersion, the cell density was then adjusted to 8.8×10^4 cells/mL for BT-474, and 6.6×10^4 cells/mL for N87, and 90 μL of which were inoculated to each well of a 96-well cell culture plate; after the inoculation was completed, the microplate was cultured under the conditions of 37° C. and 5% CO2 overnight.” left out

CYP1A2 = target: T5, CYP1A2 (Homo sapiens, UniProt P05177); assay: Direct inhibition (DI) of CYP1A2 in human liver microsomes; format: in vitro ADME; details: probe Phenacetin, human liver microsomes 0.2 mg/mL, 10 μM compound, read-out: Direct inhibition (DI) 1A2 (Phenacetin)
T5 construct: A system of 100 μL human liver microsomes; from tissue; host or cells: human liver microsomes
T5 sequence (P05177 1-516): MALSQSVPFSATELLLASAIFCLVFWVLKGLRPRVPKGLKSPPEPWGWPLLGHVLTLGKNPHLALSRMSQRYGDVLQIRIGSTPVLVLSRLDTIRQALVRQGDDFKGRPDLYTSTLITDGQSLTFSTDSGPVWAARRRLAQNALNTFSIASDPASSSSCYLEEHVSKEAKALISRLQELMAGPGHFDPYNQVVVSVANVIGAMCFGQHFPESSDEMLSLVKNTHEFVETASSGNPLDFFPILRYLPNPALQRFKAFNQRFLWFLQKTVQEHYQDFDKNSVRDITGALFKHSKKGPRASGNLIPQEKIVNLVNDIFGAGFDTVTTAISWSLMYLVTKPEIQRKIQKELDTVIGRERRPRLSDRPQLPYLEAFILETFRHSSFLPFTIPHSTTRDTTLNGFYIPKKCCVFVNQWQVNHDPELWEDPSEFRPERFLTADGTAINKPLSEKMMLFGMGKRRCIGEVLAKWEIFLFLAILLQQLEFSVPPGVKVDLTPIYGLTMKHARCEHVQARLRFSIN
Method: as §3, §4

ErbB2 kinase = target: T6, ErbB2 kinase (Homo sapiens, UniProt P04626); assay: EGFR/ErbB2 enzymatic experiment (HTRF kinEASE-TK), ErbB2; format: biochemical; details: ErbB2 kinase 0.06 ng/μL, ATP 4 μM; read-out: Kinase IC50 (nM) in vitro ErbB2
T6 construct: The final concentration of ErbB2 kinase was 0.06 ng/μL
Method: as §5, §6

[3] = probe Midazolam, read-out: Direct inhibition (DI) 3A4 (Midazolam)
[4] = probe Testosterone, read-out: Direct inhibition (DI) 3A4 (testosterone)

EGFR kinase, sequence (P00533 25-1210): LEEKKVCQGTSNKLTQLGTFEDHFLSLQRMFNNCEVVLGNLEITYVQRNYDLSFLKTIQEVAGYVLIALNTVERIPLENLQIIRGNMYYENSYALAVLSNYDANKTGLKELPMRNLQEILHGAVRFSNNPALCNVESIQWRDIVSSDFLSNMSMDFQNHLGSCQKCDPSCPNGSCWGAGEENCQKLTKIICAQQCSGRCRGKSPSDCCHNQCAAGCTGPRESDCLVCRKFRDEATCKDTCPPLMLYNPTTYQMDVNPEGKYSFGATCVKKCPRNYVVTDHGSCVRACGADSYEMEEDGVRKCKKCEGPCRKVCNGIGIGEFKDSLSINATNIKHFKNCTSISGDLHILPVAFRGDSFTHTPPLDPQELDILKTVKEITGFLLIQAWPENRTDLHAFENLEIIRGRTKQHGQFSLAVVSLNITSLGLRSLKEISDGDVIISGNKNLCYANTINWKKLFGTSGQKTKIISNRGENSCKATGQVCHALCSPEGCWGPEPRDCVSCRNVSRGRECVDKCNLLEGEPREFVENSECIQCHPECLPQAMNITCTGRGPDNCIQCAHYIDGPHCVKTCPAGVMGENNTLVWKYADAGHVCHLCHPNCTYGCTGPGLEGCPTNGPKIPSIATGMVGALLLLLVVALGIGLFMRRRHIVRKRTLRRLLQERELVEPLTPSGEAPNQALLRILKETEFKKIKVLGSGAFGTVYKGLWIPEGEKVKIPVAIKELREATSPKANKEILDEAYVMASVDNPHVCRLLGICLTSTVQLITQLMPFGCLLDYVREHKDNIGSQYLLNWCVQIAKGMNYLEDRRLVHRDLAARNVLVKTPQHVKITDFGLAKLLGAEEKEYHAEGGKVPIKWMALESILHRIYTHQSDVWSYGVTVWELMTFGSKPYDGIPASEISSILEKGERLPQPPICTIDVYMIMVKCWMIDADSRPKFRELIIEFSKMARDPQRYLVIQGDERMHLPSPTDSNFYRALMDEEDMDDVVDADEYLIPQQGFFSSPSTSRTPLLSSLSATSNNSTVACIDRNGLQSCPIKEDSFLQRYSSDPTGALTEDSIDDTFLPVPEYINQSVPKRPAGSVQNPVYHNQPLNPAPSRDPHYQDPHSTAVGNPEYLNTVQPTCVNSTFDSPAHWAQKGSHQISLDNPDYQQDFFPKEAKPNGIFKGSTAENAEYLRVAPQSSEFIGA
T4 sequence (P33261 whole entry): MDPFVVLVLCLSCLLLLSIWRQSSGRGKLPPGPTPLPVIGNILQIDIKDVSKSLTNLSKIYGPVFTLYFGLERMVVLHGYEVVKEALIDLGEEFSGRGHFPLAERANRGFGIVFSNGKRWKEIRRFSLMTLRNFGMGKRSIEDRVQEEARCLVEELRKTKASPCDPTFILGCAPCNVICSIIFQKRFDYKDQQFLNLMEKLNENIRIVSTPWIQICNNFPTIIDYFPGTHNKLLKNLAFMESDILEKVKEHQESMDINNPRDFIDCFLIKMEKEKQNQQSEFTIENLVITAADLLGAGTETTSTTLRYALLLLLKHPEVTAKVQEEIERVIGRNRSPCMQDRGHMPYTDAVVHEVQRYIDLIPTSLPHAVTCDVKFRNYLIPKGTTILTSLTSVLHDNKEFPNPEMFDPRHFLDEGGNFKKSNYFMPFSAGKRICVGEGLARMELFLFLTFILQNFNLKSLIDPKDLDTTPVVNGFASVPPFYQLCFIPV
T3 sequence (P08684 whole entry): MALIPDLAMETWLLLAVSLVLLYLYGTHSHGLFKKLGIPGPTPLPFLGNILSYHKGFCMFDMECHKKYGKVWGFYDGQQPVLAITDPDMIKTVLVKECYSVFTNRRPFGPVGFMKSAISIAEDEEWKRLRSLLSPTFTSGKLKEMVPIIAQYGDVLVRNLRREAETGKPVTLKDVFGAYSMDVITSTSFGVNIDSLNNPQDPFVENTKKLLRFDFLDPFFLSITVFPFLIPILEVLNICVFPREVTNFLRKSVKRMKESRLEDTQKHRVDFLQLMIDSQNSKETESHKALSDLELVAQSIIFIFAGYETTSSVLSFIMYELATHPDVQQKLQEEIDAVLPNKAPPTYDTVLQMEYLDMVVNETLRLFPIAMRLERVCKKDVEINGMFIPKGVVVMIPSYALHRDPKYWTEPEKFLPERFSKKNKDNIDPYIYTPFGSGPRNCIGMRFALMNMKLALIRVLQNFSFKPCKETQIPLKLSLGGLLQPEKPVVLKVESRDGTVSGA
T6 sequence (P04626 23-1255): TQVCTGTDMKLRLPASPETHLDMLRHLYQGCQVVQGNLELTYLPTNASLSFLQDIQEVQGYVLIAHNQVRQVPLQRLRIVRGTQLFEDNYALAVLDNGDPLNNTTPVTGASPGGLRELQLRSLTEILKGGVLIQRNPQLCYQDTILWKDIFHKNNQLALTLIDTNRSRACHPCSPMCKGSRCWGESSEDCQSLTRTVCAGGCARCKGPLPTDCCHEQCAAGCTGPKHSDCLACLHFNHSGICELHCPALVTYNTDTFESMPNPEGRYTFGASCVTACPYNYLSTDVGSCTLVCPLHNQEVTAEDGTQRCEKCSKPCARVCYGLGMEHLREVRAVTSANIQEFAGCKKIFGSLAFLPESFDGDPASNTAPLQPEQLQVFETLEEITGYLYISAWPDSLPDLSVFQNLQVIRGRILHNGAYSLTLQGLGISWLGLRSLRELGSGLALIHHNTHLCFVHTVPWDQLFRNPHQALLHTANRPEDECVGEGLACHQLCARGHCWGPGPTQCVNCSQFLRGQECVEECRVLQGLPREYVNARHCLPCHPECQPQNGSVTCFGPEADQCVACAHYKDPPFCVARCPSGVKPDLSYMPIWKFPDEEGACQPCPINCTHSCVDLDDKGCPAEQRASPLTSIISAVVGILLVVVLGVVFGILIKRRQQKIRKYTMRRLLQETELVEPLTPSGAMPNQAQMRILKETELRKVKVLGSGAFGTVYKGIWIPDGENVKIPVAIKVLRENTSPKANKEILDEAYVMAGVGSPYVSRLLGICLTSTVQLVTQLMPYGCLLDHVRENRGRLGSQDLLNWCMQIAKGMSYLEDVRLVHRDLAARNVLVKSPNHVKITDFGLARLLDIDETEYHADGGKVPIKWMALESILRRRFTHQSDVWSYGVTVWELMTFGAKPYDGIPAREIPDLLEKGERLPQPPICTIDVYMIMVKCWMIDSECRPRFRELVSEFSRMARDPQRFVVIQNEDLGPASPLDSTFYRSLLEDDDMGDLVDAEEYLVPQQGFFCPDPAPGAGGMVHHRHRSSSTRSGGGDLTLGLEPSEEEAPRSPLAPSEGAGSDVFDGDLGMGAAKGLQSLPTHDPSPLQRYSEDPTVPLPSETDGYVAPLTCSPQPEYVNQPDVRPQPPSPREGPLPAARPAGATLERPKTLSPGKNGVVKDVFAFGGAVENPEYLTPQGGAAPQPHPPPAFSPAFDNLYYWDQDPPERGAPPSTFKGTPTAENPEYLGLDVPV
T2 sequence (P10635 whole entry): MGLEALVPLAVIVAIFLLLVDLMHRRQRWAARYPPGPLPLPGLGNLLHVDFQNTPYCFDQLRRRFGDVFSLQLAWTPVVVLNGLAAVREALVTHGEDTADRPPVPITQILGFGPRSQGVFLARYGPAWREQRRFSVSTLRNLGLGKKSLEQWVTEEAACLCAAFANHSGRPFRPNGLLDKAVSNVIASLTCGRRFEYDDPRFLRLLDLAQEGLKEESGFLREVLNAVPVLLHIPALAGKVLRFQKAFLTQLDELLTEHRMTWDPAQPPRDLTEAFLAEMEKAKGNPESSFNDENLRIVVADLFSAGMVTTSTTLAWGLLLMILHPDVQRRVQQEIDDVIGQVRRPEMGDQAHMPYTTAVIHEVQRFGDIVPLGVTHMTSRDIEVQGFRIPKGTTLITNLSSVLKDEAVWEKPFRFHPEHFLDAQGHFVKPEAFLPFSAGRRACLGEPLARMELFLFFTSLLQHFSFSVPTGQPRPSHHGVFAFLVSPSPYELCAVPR
T1 sequence (P11712 whole entry): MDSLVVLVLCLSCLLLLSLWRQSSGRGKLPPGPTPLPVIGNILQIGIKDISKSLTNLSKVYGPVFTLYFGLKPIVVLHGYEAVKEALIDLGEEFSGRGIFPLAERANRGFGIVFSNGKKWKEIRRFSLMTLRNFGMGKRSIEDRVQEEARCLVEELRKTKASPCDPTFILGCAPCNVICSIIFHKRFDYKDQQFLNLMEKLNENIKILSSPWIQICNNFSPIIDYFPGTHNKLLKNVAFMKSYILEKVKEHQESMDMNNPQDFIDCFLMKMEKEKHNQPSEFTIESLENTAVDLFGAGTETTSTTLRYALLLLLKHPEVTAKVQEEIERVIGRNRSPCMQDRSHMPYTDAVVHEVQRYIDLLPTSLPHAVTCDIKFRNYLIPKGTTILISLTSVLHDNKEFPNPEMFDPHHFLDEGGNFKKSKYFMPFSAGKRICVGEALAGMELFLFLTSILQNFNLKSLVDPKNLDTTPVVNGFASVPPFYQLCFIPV

CCOc1cc2ncnc(Nc3ccc(Oc4ccn5ncnc5c4)c(C)c3)c2cc1NC(=O)/C(F)=C\[C@@H]1CCCN1C
IC50 [1]: 3.1 nM
inhibition at 20 min, 10 µM (CYP2C9): 21%
inhibition at 20 min, 10 µM (CYP2D6): 38%
IC50 (EGFR kinase): 50.9 nM
inhibition at 20 min, 10 µM (CYP3A4; [3]): 14%
inhibition at 20 min, 10 µM (CYP3A4; [4]): 32%
inhibition at 20 min, 10 µM (CYP2C19): 43%
IC50 [2]: 5.9 nM
inhibition at 20 min, 10 µM (CYP1A2): 23%
IC50 (ErbB2 kinase): 4.6 nM

C=CC(=O)N1CCCC(Nc2ccc3ncnc(Nc4ccc(Oc5cc6nncn6cn5)c(C)c4)c3c2)C1 (stereo in doubt) [Final product of Embodiment 8, (R)-1-(3-((4-((4-([1,2,4]triazolo[4,3-c]pyrimidin-7-yloxy)-3-methylphenyl)amino)quinazolin-6-yl)amino)piperidin-1-yl)propan-2-en-1-one]
IC50 [1]: 19.4 nM
inhibition at 20 min, 10 µM (CYP2C9): 17%
inhibition at 20 min, 10 µM (CYP2D6): 11%
IC50 (EGFR kinase): 136 nM
inhibition at 20 min, 10 µM (CYP3A4; [3]): 61%
inhibition at 20 min, 10 µM (CYP3A4; [4]): 72%
inhibition at 20 min, 10 µM (CYP2C19): 28%
IC50 [2]: 10.3 nM
inhibition at 20 min, 10 µM (CYP1A2): 11%
IC50 (ErbB2 kinase): 17.5 nM

C=CC(=O)NC1CCC=C(c2ccc3ncnc(Nc4ccc(Oc5cc6nncn6cn5)c(C)c4)c3c2)C1 (stereo not shown) [Final product of Embodiment 1, N-(3-(4-((4-([1,2,4]triazolo[4,3-c]pyrimidin-7-yloxy)-3-methylphenyl)amino)quinazolin-6-yl)cyclohex-3-en-1-yl)acrylamide]
IC50 [1]: 4.45 nM
inhibition at 20 min, 10 µM (CYP2C9): 74%
inhibition at 20 min, 10 µM (CYP2D6): 25%
IC50 (EGFR kinase): 14.4 nM
inhibition at 20 min, 10 µM (CYP3A4; [3]): 91%
inhibition at 20 min, 10 µM (CYP3A4; [4]): 94%
inhibition at 20 min, 10 µM (CYP2C19): 37%
IC50 [2]: 5.07 nM
inhibition at 20 min, 10 µM (CYP1A2): 47%
IC50 (ErbB2 kinase): 0.947 nM

C=CC(=O)N[C@@H]1CCCN(c2ccc3ncnc(Nc4ccc(Oc5cc6nncn6cn5)c(C)c4)c3c2)C1 [Final product of Embodiment 3, (R)—N-(1-(4-((4-([1,2,4]triazolo[4,3-c]pyrimidin-7-yloxy)-3-methylphenyl)amino)quinazolin-6-yl)piperidin-3-yl) acrylamide]
IC50 [1]: 15.6 nM
inhibition at 20 min, 10 µM (CYP2C9): 26%
inhibition at 20 min, 10 µM (CYP2D6): 4%
IC50 (EGFR kinase): 24.3 nM
inhibition at 20 min, 10 µM (CYP3A4; [3]): 54%
inhibition at 20 min, 10 µM (CYP3A4; [4]): 61%
inhibition at 20 min, 10 µM (CYP2C19): 9%
IC50 [2]: 15.3 nM
inhibition at 20 min, 10 µM (CYP1A2): 14%
IC50 (ErbB2 kinase): 3.83 nM

C=CC(=O)N1CCC(c2ccc3ncnc(Nc4ccc(Oc5cc6nncn6cn5)c(C)c4)c3c2)CC1 [Final product of Embodiment 4, 1-(4-(4-((4-([1,2,4]triazolo[4,3-c]pyrimidin-7-yloxy)-3-methylphenyl)amino)quinazolin-6-yl)piperidin-1-yl)propan-2-en-1-one]
IC50 [1]: 5.75 nM
inhibition at 20 min, 10 µM (CYP2C9): 48%
inhibition at 20 min, 10 µM (CYP2D6): 7%
IC50 (EGFR kinase): 168 nM
inhibition at 20 min, 10 µM (CYP3A4; [3]): 49%
inhibition at 20 min, 10 µM (CYP3A4; [4]): 56%
inhibition at 20 min, 10 µM (CYP2C19): 23%
IC50 [2]: 4.79 nM
inhibition at 20 min, 10 µM (CYP1A2): < 0%
IC50 (ErbB2 kinase): 6.09 nM

C=CC(=O)N[C@H]1CCCN(c2ccc3ncnc(Nc4ccc(Oc5cc6nncn6cn5)c(C)c4)c3c2)C1 [Final product of Embodiment 5, (S)—N-(1-(4-((4-([1,2,4]triazolo[4,3-c]pyrimidin-7-yloxy)-3-methylphenyl)amino)quinazolin-6-yl)piperidin-3-yl)acrylamide]
IC50 [1]: 20.1 nM
inhibition at 20 min, 10 µM (CYP2C9): 49%
inhibition at 20 min, 10 µM (CYP2D6): 14%
IC50 (EGFR kinase): 62.1 nM
inhibition at 20 min, 10 µM (CYP3A4; [3]): 71%
inhibition at 20 min, 10 µM (CYP3A4; [4]): 74%
inhibition at 20 min, 10 µM (CYP2C19): 18%
IC50 [2]: 14.4 nM
inhibition at 20 min, 10 µM (CYP1A2): 9%
IC50 (ErbB2 kinase): 2.04 nM

C=C(F)C(=O)N1CC=C(c2ccc3ncnc(Nc4ccc(Oc5cc6nncn6cn5)c(C)c4)c3c2)CC1 [Final product of Embodiment 6, 1-(4-(4-((4-([1,2,4]triazolo[4,3-c]pyrimidin-7-yloxy)-3-methylphenyl)amino)quinazolin-6-yl)-5,6-dihydropyridin-1(2H)-yl)-2-fluoropropyl-2-en-1-one]
IC50 [1]: 24 nM
inhibition at 20 min, 10 µM (CYP2C9): 55%
inhibition at 20 min, 10 µM (CYP2D6): 30%
IC50 (EGFR kinase): 233 nM
inhibition at 20 min, 10 µM (CYP3A4; [3]): 72%
inhibition at 20 min, 10 µM (CYP3A4; [4]): 80%
inhibition at 20 min, 10 µM (CYP2C19): 41%
IC50 [2]: 16.1 nM
inhibition at 20 min, 10 µM (CYP1A2): 13%
IC50 (ErbB2 kinase): 2.92 nM

Cc1cc(Nc2ncnc3ccc(NC(=O)/C(F)=C\[C@H]4CCCN4C)cc23)ccc1Oc1ccn2ncnc2c1 [Final product of Embodiment 40]
inhibition at 20 min, 10 µM (CYP2C9): < 0%
inhibition at 20 min, 10 µM (CYP2D6): 16%
inhibition at 20 min, 10 µM (CYP3A4; [3]): 3%
inhibition at 20 min, 10 µM (CYP3A4; [4]): 9%
inhibition at 20 min, 10 µM (CYP2C19): 18%
inhibition at 20 min, 10 µM (CYP1A2): < 0%
